In ChEMBL document CHEMBL5620348, “3-Hydroxy-pyridin-4(1H)-ones as siderophores mediated delivery of isobavachalcone enhances antibacterial activity against pathogenic Pseudomonas aeruginosa” (Eur J Med Chem, 2023):
The source made the active and inactive calls. The rule behind the calls is not given here.

Columns and labels:
Pseudomonas aeruginosa [1] = test: Antibacterial activity against Pseudomonas aeruginosa PAO1 assessed as inhibition of bacterial growth incubated for 18 to 20 hrs in presence of MH medium by broth microdilution assay; type: functional, organism-based
Pseudomonas aeruginosa [2] = test: Antibacterial activity against Pseudomonas aeruginosa PAO1 assessed as inhibition of bacterial growth incubated for 18 to 20 hrs in presence of M9 and FeCl3 medium by broth microdilution assay; type: functional, organism-based
Pseudomonas aeruginosa [3] = test: Antibacterial activity against multi-drug resistant Pseudomonas aeruginosa clinical isolate FB assessed as inhibition of bacterial growth by measuring minimum inhibitory concentration incubated for 18 to 20 hrs in presence of M9 medium by broth microdilution assay; type: functional; details: time 18-20 hrs
Klebsiella pneumoniae = test: Antibacterial activity against Klebsiella pneumoniae ATCC 700603 assessed as inhibition of bacterial growth by measuring minimum inhibitory concentration incubated for 18 to 20 hrs in presence of M9 medium by broth microdilution assay; type: functional; details: time 18-20 hrs
Pseudomonas aeruginosa [4] = test: Antibacterial activity against Pseudomonas aeruginosa PAO1 assessed as inhibition of bacterial growth by measuring minimum inhibitory concentration incubated for 18 to 20 hrs in presence of M9 medium by broth microdilution assay; type: functional; details: time 18-20 hrs
Pseudomonas aeruginosa [5] = test: Antibacterial activity against multi-drug resistant Pseudomonas aeruginosa clinical isolate 1129 assessed as inhibition of bacterial growth by measuring minimum inhibitory concentration incubated for 18 to 20 hrs in presence of M9 medium by broth microdilution assay; type: functional; details: time 18-20 hrs
Staphylococcus aureus [6] = test: Antibacterial activity against Staphylococcus aureus ATCC 25923 assessed as inhibition of bacterial growth by measuring minimum inhibitory concentration incubated for 18 to 20 hrs in presence of M9 medium by broth microdilution assay; type: functional; details: time 18-20 hrs
Pseudomonas aeruginosa [7] = test: Antibacterial activity against Pseudomonas aeruginosa PAO1 assessed as inhibition of bacterial growth by measuring minimum inhibitory concentration incubated for 18 to 20 hrs in presence of MH medium by broth microdilution assay; type: functional; details: time 18-20 hrs
Pseudomonas aeruginosa [8] = test: Antibacterial activity against Pseudomonas aeruginosa ATCC27853 assessed as inhibition of bacterial growth by measuring minimum inhibitory concentration incubated for 18 to 20 hrs in presence of M9 medium by broth microdilution assay; type: functional; details: time 18-20 hrs
Pseudomonas aeruginosa [9] = test: Antibacterial activity against multi-drug resistant Pseudomonas aeruginosa clinical isolate 1167 assessed as inhibition of bacterial growth by measuring minimum inhibitory concentration incubated for 18 to 20 hrs in presence of M9 medium by broth microdilution assay; type: functional; details: time 18-20 hrs
Escherichia coli = test: Antibacterial activity against Escherichia coli ATCC 25922 assessed as inhibition of bacterial growth by measuring minimum inhibitory concentration incubated for 18 to 20 hrs in presence of M9 medium by broth microdilution assay; type: functional; details: time 18-20 hrs
Pseudomonas aeruginosa [10] = test: Antibacterial activity against Pseudomonas aeruginosa PAO1 assessed as inhibition of bacterial growth by measuring minimum inhibitory concentration incubated for 18 to 20 hrs in presence of M9 and FeCl3 medium by broth microdilution assay; type: functional; details: time 18-20 hrs
Pseudomonas aeruginosa [11] = test: Antibacterial activity against multi-drug resistant Pseudomonas aeruginosa clinical isolate 1121 assessed as inhibition of bacterial growth by measuring minimum inhibitory concentration incubated for 18 to 20 hrs in presence of M9 medium by broth microdilution assay; type: functional; details: time 18-20 hrs
Pseudomonas aeruginosa [12] = test: Antibacterial activity against Pseudomonas aeruginosa PAO1 assessed as inhibition of bacterial growth incubated for 18 to 20 hrs in presence of M9 medium by broth microdilution assay; type: functional, organism-based
Staphylococcus aureus [13] = test: Antibacterial activity against Staphylococcus aureus ATCC 25923 assessed as inhibition of bacterial growth incubated for 18 to 20 hrs in presence of M9 medium by broth microdilution assay; type: functional, organism-based; details: time 18-20 hrs

Row | Structure (SMILES) | IC50 (Pseudomonas aeruginosa [1]) | IC50 (Pseudomonas aeruginosa [2]) | MIC (Pseudomonas aeruginosa [3]) | MIC (Klebsiella pneumoniae) | MIC (Pseudomonas aeruginosa [4]) | MIC (Pseudomonas aeruginosa [5]) | MIC (Staphylococcus aureus [6]) | MIC (Pseudomonas aeruginosa [7]) | MIC (Pseudomonas aeruginosa [8]) | MIC (Pseudomonas aeruginosa [9]) | MIC (Escherichia coli) | MIC (Pseudomonas aeruginosa [10]) | MIC (Pseudomonas aeruginosa [11]) | IC50 (Pseudomonas aeruginosa [12]) | Activity (Staphylococcus aureus [13])
1 | CC(C)=CCc1c(OCCCCn2cc(COCc3cc(=O)c(O)cn3C)nn2)ccc(C(=O)/C=C/c2ccc(O)cc2)c1O | 17.8 µg/mL | > 128 µg/mL | 16 µg/mL | > 128 µg/mL | 16 µg/mL | 16 µg/mL | 32 µg/mL | 32 µg/mL | 32 µg/mL | 16 µg/mL | > 128 µg/mL | > 128 µg/mL | 8 µg/mL | 2.55 µg/mL | 
2 | CC(C)=CCc1c(O)ccc(C(=O)/C=C/c2ccc(OCCCOCc3c(O)c(=O)cc(C)n3C)cc2)c1O | 16.2 µg/mL | > 128 µg/mL | 16 µg/mL | > 128 µg/mL | 16 µg/mL | 16 µg/mL | 32 µg/mL | 32 µg/mL | 32 µg/mL | 8 µg/mL | > 128 µg/mL | > 128 µg/mL | 16 µg/mL | 3.27 µg/mL | 
3 | CC(C)=CCc1c(O)ccc(C(=O)/C=C/c2ccc(OCCCCCC(=O)NCc3cc(=O)c(O)cn3C)cc2)c1O | 19.4 µg/mL | > 128 µg/mL | 16 µg/mL | > 128 µg/mL | 16 µg/mL | 32 µg/mL | 32 µg/mL | 32 µg/mL | 32 µg/mL | 32 µg/mL | > 128 µg/mL | > 128 µg/mL | 16 µg/mL | 1.46 µg/mL | 
4 | CC(C)=CCc1c(OCCCCn2cc(COCc3c(O)c(=O)cc(C)n3C)nn2)ccc(C(=O)/C=C/c2ccc(O)cc2)c1O | 29.4 µg/mL | > 128 µg/mL | 16 µg/mL | > 128 µg/mL | 32 µg/mL | 16 µg/mL | 32 µg/mL | 64 µg/mL | 32 µg/mL | 32 µg/mL | > 128 µg/mL | > 128 µg/mL | 8 µg/mL | 3.64 µg/mL | 
5 | CC(C)=CCc1c(O)ccc(C(=O)/C=C/c2ccc(OCCCCCCOCc3c(O)c(=O)cc(C)n3C)cc2)c1O | 10.2 µg/mL | > 128 µg/mL | 32 µg/mL | > 128 µg/mL | 32 µg/mL | 8 µg/mL | > 128 µg/mL | > 128 µg/mL | 32 µg/mL | 16 µg/mL | > 128 µg/mL | > 128 µg/mL | 8 µg/mL | 7.87 µg/mL | inactive
6 | CC(C)=CCc1c(O)ccc(C(=O)/C=C/c2ccc(OCCCCCCOCc3cc(=O)c(O)cn3C)cc2)c1O | 7.31 µg/mL | > 128 µg/mL | 16 µg/mL | > 128 µg/mL | 16 µg/mL | 8 µg/mL | > 128 µg/mL | 16 µg/mL | 32 µg/mL | 8 µg/mL | > 128 µg/mL | > 128 µg/mL | 8 µg/mL | 3.39 µg/mL | inactive
